# Reference: US12241102B2, “Method for synthesizing betalain pigment” (priority 2018, dated 2025)
# Experiments:
# [1] = system: Human breast cancer cells (MCF-7); test: Influence of betalain pigment on human breast cancer cells (AlamarBlue assay); assay type: cell-based; conditions: MCF-7 cells, concentration of 50 μM, cultured for 72 hours, p<0.05 vs untreated cells
# Description: FIG. 14 show the results of evaluation of cell proliferation in MCF-7 cells. FIG. […] Cell proliferation was determined using an AlamarBlue assay according to the manufacturer's instructions. Bars represent the mean±SE (n=5). Symbol “*” represents p<0.05 as compared to untreated cells. […] Cells were examined under an inverted microscope. Bars represent 100 μm.
# Human breast cancer cells (MCF-7) were received from the RIKEN BioResource Center. For the culture of the cells, Dulbecco's modified Eagle's medium-high glucose (4.5 g L^−1 glucose; DMEM-HG) supplemented with 10% FBS and antibiotics (100 U mL^−1 penicillin and 100 μg mL^−1 streptomycin) was used. The cells were cultured under the culture conditions of 37° C., a humidity of 100%, and a 5% CO2/95% air atmosphere. For the culture, the breast cancer cells were added at 5,000 cells per well on 96-well plates, and at the same time, amaranthin or betanin was added at different concentrations, and the cells were cultured for 72 hours. After that, the activity of the breast cancer cells was evaluated by an AlamarBlue assay (alamarBlue Cell Viability Reagent, Thermo Fisher Scientific). The procedure followed the accompanying instructions.
# HIV-1 protease [2] = molecular target: T1, HIV-1 protease (Human immunodeficiency virus type 1 group M subtype B, UniProt P04585); test: Evaluation of HIV-1 protease inhibitory activity (residual substrate peptide by HPLC); assay type: biochemical; parameters: A recombinant HIV-1 protease (ab84117) from Abcam was used as an HIV-1 protease; purchased Abcam ab84117; conditions: 25° C., 2 hours, pH 4.7
# Description: FIG. 15 show the results of evaluation of inhibition of an HIV-1 protease. FIG. 15A includes HPLC chromatograms of HIV-1 protease reaction mixtures. Dashed and solid arrows indicate an HIV-1 protease substrate and its degradation product, respectively. (+) and (−)HIV-1 protease indicate reaction mixtures with and without the HIV-1 protease, respectively. (−)Betalain indicates a reaction mixture without betalain pigments. The horizontal axis indicates the retention time (min), and the vertical axis indicates the signal intensity (μV). […] Gray and black bars indicate reaction mixtures containing betanin and amaranthin, respectively. The white bar indicates the reaction mixture without betalain pigments as a negative control. Bars represent the mean±SE (n=3). Symbol “*” represents p<0.05 as compared to the reaction mixture without betalain pigments. 0, 10, 50, and 100 indicate 0-, 10-, 50-, and 100-fold amounts of betalain as compared to the HIV-1 protease. […]
# After the reaction, the reaction liquid was measured for the amount of the residual substrate peptide through use of HPLC, and a residual ratio with respect to the substrate before the reaction was calculated. […] Analysis was performed with an analytical wavelength being set to 260 nm allowing the HIV-1 protease substrate peptide to be detected.
# HIV-1 protease [3] = molecular target: T1, HIV-1 protease; conditions: literature virtual screening, not tested experimentally there; cited from earlier work
Structure (SMILES),cancer cell activity of the breast cancer cells [1],"inhibitory activity on the HIV-1 protease (HIV-1 protease [2]; 10-, 50- and 100-fold amounts with respect to the HIV-1 protease)",virtual screening prediction as HIV-1 protease inhibitor (HIV-1 protease [3]),activity of the HIV-1 protease (HIV-1 protease [2]; 100-fold amount with respect to the HIV-1 protease (16 pmol))
"O=C(O)C1=C/C(=C/C=[N+]2/c3cc(O)c(OC4OC(CO)[C@@H](O)C(O)C4O)cc3CC2C(=O)[O-])CC(C(=O)O)N1 (stereo in doubt) [betanin, reference compound]",significantly suppressed,not found to have inhibitory activity,,
O=C(O)C1=C/C(=C/C=[N+]2c3cc(O)c(O[C@@H]4O[C@H](CO)[C@@H](O)[C@H](O)[C@H]4O[C@@H]4O[C@H](C(=O)O)[C@@H](O)[C@H](O)[C@H]4O)cc3C[C@H]2C(=O)[O-])C[C@@H](C(=O)O)N1 [amaranthin],significantly suppressed,,candidate of a novel HIV-1 protease inhibitor,significantly inhibited
